Measured values: patent publication US8669288B2, “Lysine salts of 4-((phenoxyalkyl)thio)-phenoxyacetic acid derivatives” (Janssen Pharmaceutica N.V., priority 2005, dated 2014)
Counter-ions that a name gives are not always drawn.

Tests used:
Assay type in all cases: physicochemical
pKa = assay: pKa
[1] = Solubility in distilled water
[2] = DVS isotherm, cycling humidity 0-90% RH; conditions: 25° C., 0-90% RH in 10% RH increments
Procedure: The non-hydrate, L-lysine salt of the compound of formula (Ia) was subjected to cycling humidity conditions, with results as shown in FIG. 3. More specifically, the sample was analyzed through a full cycle in step mode at 25° C., from 0-90% RH (relative humidity) in 10% RH increments. The equilibration conditions set were as follows: dm/dt of 0.0007; dm/dt window of 5 mins; minimum and maximum stages of 15 and 360 minutes. Data was collected in 1 minute intervals. Nitrogen was used as the carrier gas.

Structure (SMILES) | pKa (pKa) | solubility ([1]; pH 7.4, water) | solubility ([1]; water, pH 2.0) | Form conversion under cycling humidity conditions [2]
CCO[C@H](COc1ccc(C(F)(F)F)cc1)CSc1ccc(OCC(=O)O)c(C)c1 [Compound of formula (la), (R)-{4-[2-Ethoxy-3-(4-trifluoromethyl-phenoxy)-propylsulfanyl]-2-methyl-phenoxy}-acetic acid] | 3.63 | ~1000 µg/mL | < 2 µg/mL | –
CCO[C@H](COc1ccc(C(F)(F)F)cc1)CSc1ccc(OCC(=O)O)c(C)c1 [{4-[2-Ethoxy-3-(4-trifluoromethyl-phenoxy)-propylsulfanyl]-2-methyl-phenoxy}-acetic acid L-Lysine non-hydrate salt] | – | – | – | reversibly converts to the corresponding di-hydrate form by absorbing water
